In article PMC9207806 (ACS Chemical Biology, 2022):
Where a name gives a salt, the structure may show the parent alone. Read-outs that look alike come from different tables or passages of the source.

Biological target: T1, VACV D9 decapping enzyme (Vaccinia virus, UniProt P04311)
T1 construct: His-tag (C); made in house
Experiment: biochemical
Format: biochemical
Procedure: Point fluorescence measurements were performed using the BioTek Synergy H1 microplate reader. Before each measurement, the reaction buffer was degassed. Experiments were performed in the Greiner 96-well, black, non-binding plates at 30 °C. Before the measurement, the plate was preincubated for 15 min at 30 °C with mixing (300 rpm). The point fluorescence was registered with 1 min interval and detection at 345 nm excitation wavelength and 378 nm emission wavelength.
Experiments to determine IC50 parameters were performed as point fluorescence measurements. Each well contained an appropriate buffer (10 mM MOPS·HCl, pH 7.0, 100 mM KOAc, containing 2 mM MgCl2, 0.3 mM MnCl2, and 2 mM DTT) with addition of 0.1% BSA, a fluorescent substrate (3 μM of probe 1b), an inhibitor (in half-logarithmic dilution, cinh ∈ 0, 100 μM), and an enzyme (5 nM of D9) to a final volume of 150 μL. To determine the IC50 values, a three parameter dose–response formula with standard hill slope from GraphPad Prism software was fitted [drawing 3] where V/V0 is the relative initial rate of the reaction, Imin and Imax are bottom and top plateaus, and Cinh is the concentration of the inhibitor.

[1] = in-house nucleotide library (Table S1, Figure 3), 3 μM probe 1b, 5 nM D9, 30 °C, means of 3 independent experiments ± SEM, read-out: IC50, nucleotide-derived compounds, FLINT HTS assay
[2] = read-out: IC50, nucleotide-derived compounds, FLINT HTS assay, in-house nucleotide library (Table S1, Figure 3), 3 μM probe 1b, 5 nM D9, 30 °C, means of 3 independent experiments ± SEM

| Compound | IC50 [1] [µM] | also measured |
| --- | --- | --- |
| Nc1ncnc2c1ncn2[C@@H]1O[C@H](COP(O)(=S)OP(=O)(O)OP(O)(=S)OC[C@H]2O[C@@H](n3cnc4c(N)ncnc43)[C@H](O)[C@@H]2O)[C@@H](O)[C@H]1O (stereo partly drawn) [ApSppSA] | > 100 | – |
| Nc1ncnc2c1ncn2[C@@H]1O[C@H](COP(=O)(O)OP(=O)(O)OP(=O)(O)OC[C@@H]2O[C@H](n3cnc4c(N)ncnc43)[C@@H](O)[C@H]2O)[C@@H](O)[C@H]1O [ApppA] | > 100 | – |
| Nc1nc2ccc(Cl)cc2c2nc(-c3ccco3)nn12 [CGS-15943, reference compound] | – | IC50: 20.1 ± 5.2 µM |
| Cc1n([C@@H]2O[C@H](COP(=O)(O)OP(=O)(O)O)[C@@H](O)[C@H]2O)c2nc(N)[nH]c(=O)c2[n+]1C [Compound 8Mem7GDP, 8Mem7GDP] | > 100 | – |
| Cc1n([C@@H]2O[C@H](COP(=O)(O)OP(=O)(O)OP(=O)(O)O)[C@@H](O)[C@H]2O)c2nc(N)[nH]c(=O)c2[n+]1C [Compound 8Mem7GTP, 8Mem7GTP] | 42.9 ± 7.8 | – |
| Nc1nc2c(ncn2[C@@H]2O[C@H](COP(=O)(O)OP(=O)(O)OP(=O)(O)O)[C@@H](O)[C@H]2O)c(=O)[nH]1 [GTP, reference compound] | 15.4 ± 2.7 | – |
| Nc1nc2c(ncn2[C@@H]2O[C@H](COP(=O)(O)OP(=O)(O)OP(=O)(O)OC[C@H]3O[C@@H](n4cnc5c(N)ncnc54)[C@H](O)[C@@H]3O)[C@@H](O)[C@H]2O)c(=O)[nH]1 [GpppA] | > 100 | – |
| Nc1nc2c(ncn2[C@@H]2O[C@H](COP(=O)(O)OP(=O)(O)OP(=O)(O)OC[C@H]3O[C@@H](n4cnc5c(=O)[nH]c(N)nc54)[C@H](O)[C@@H]3O)[C@@H](O)[C@H]2O)c(=O)[nH]1 [GpppG] | > 100 | – |
| Nc1nc2c(cnn2CCc2ccccc2)c2nc(-c3ccco3)nn12 [SCH 58261, reference compound] | – | IC50: 4.5 ± 0.8 µM |
| COc1cc(NS(C)(=O)=O)ccc1Nc1c2ccccc2nc2ccccc12 [amsacrine hydrochloride, reference compound] | – | IC50: 12.6 ± 1.7 µM |
| C[n+]1cn([C@@H]2O[C@H](COP([O-])(=S)OP(=O)(O)O)[C@@H](O)[C@H]2O)c2nc(N)[nH]c(=O)c21 (stereo partly drawn) [m7GDPαS D1] | 8.3 ± 1.7 | – |
| C[n+]1cn([C@@H]2O[C@H](COP(O)(=S)OP(=O)(O)O)[C@@H](O)[C@H]2O)c2nc(N)[nH]c(=O)c21 (stereo partly drawn) [m7GDPαS D2] | 7.6 ± 1.2 | – |
| Cn1c[n+]([C@@H]2O[C@H](COP(=O)(O)O)[C@@H](O)[C@H]2O)c2nc(N)[nH]c(=O)c21 [m7GMP] | > 100 | – |
| C[n+]1cn([C@@H]2O[C@H](COP(O)(=S)OP(=O)(O)OP(=O)(O)O)[C@@H](O)[C@H]2O)c2nc(N)[nH]c(=O)c21 (stereo partly drawn) [m7GTPαS] | 0.64 ± 0.06 | – |
| CO[C@@H]1[C@H](OP(=O)(O)OC[C@H]2O[C@@H](n3cnc4c(=O)[nH]c(N)nc43)[C@H](O)[C@@H]2O)[C@@H](COP(=O)(O)OP(=O)([O-])OP(=O)(O)OC[C@H]2O[C@@H](n3c[n+](C)c4c(=O)[nH]c(N)nc43)[C@H](O)[C@@H]2OC)O[C@H]1n1cnc2c(=O)[nH]c(N)nc21 [m7GmpppGmpG] | – | IC50 [2]: 3.9 ± 0.5 µM; IC50 (read-out: IC50, nucleotide-derived compounds, FLINT HTS assay, in-house nucleotide library (Table S1, Figure 3), 3 μM probe 1b, 5 nM D9, 30 °C, means of 3 independent experiments ± SEM, listed as m^7GmpppGmpG): ~4 µM |
| C[n+]1cn([C@@H]2O[C@H](COP(=O)(O)CP(=O)(O)OP(=O)(O)OC[C@H]3O[C@@H](n4cnc5c(=O)[nH]c(N)nc54)[C@H](O)[C@@H]3O)[C@@H](O)[C@H]2O)c2nc(N)[nH]c(=O)c21 [m7GpCH2ppG] | 16.8 ± 3.3 | – |

| Compound | IC50 [1] [µM] | also measured |
| --- | --- | --- |
| C[n+]1cn([C@@H]2O[C@H](COP(=O)(O)CP(=O)([O-])OP(=O)(O)O)[C@@H](O)[C@H]2O)c2nc(N)nc(O)c21 [m7GpCH2pp] | – | IC50 [2]: 0.58 ± 0.06 µM |
| C[n+]1cn(C2OC(COP(=O)(O)OP(=O)([O-])C(Cl)(Cl)P(=O)(O)OP(=O)(O)OCC3OC(n4cnc5c(=O)[nH]c(N)nc54)C(O)C3O)C(O)C2O)c2nc(N)nc(O)c21 (stereo not drawn) [m7GppCCl2ppG] | 41.4 ± 6.6 | – |
| C[n+]1cn(C2OC(COP(=O)(O)OP(=O)([O-])C(F)(F)P(=O)(O)OP(=O)(O)OCC3OC(n4cnc5c(=O)[nH]c(N)nc54)C(O)C3O)C(O)C2O)c2nc(N)nc(O)c21 (stereo not drawn) [m7GppCF2ppG] | 16.7 ± 3.1 | – |
| C[n+]1cn(C2OC(COP(=O)([O-])OP(=O)(O)C(F)(F)P(=O)(O)OP(=O)([O-])OCC3OC(n4c[n+](C)c5c(=O)[nH]c(N)nc54)C(O)C3O)C(O)C2O)c2nc(N)[nH]c(=O)c21 (stereo not drawn) [m7GppCF2ppm7G] | 14.7 ± 2.6 | – |
| CO[C@@H]1[C@H](OP(=O)(O)OC[C@H]2O[C@@H](n3cnc4c(=O)[nH]c(N)nc43)[C@H](O)[C@@H]2O)[C@@H](COP(=O)(O)CP(=O)(O)OP(=O)([O-])OC[C@H]2O[C@@H](n3c[n+](C)c4c(O)nc(N)nc43)[C@H](O)[C@@H]2O)O[C@H]1n1cnc2c(N)ncnc21 [m7GppCH2pAmpG] | 27.4 ± 6.2 | – |
| C[n+]1cn([C@@H]2O[C@H](COP(=O)([O-])OP(=O)(O)CP(=O)(O)O)[C@@H](O)[C@H]2O)c2nc(N)nc(O)c21 [m7GppCH2p] | 1.1 ± 0.1 | – |
| C[n+]1cn(C2OC(COP(=O)([O-])OP(=O)(O)OP(=O)(O)OCC3OC(n4cnc5c(=S)[nH]c(N)nc54)C(O)C3O)C(O)C2O)c2nc(N)[nH]c(=O)c21 (stereo not drawn) [m7Gppp6SG] | 14.1 ± 1.7 | – |
| CNc1ncnc2c1ncn2[C@@H]1O[C@H](COP(=O)(O)OP(=O)(O)OP(=O)(O)OC[C@H]2O[C@@H](n3c[n+](C)c4c(=O)[nH]c(N)nc43)[C@H](O)[C@@H]2O)[C@@H](O)[C@H]1O [m7Gppp(m6A)] | 31.5 ± 5.9 | – |
| Cn1c[n+]([C@@H]2O[C@H](COP(=O)(O)OP(=O)(O)OP(=O)(O)OC[C@H]3O[C@@H](n4cnc5c(N)ncnc54)[C@H](O)[C@@H]3O)[C@@H](O)[C@H]2O)c2nc(N)[nH]c(=O)c21 [m7GpppA] | 33 ± 5.9 | – |
| CO[C@@H]1[C@H](O)[C@@H](COP(=O)(O)OP(=O)(O)OP(=O)(O)OC[C@H]2O[C@@H]([n+]3cn(C)c4c(=O)[nH]c(N)nc43)[C@H](O)[C@@H]2O)O[C@H]1n1cnc2c(N)ncnc21 [m7GpppAm] | 19.8 ± 3.6 | – |
| CO[C@@H]1[C@H](OP(=O)(O)OC[C@H]2O[C@@H](n3cnc4c(=O)[nH]c(N)nc43)[C@H](O)[C@@H]2O)[C@@H](COP(=O)(O)OP(=O)(O)OP(=O)([O-])OC[C@H]2O[C@@H]([n+]3cn(C)c4c(=O)[nH]c(N)nc43)[C@H](O)[C@@H]2O)O[C@H]1n1cnc2c(N)ncnc21 [m7GpppAmpG] | 20.4 ± 3.4 | – |
| CO[C@@H]1[C@H](OP(=O)(O)OC[C@H]2O[C@@H](n3cnc4c(=O)[nH]c(N)nc43)[C@H](O)[C@@H]2O)[C@@H](COP(=O)(O)OP(=O)(O)OP(=O)([O-])OC[C@H]2O[C@@H]([n+]3cn(C)c4c(=O)[nH]c(N)nc43)[C@H](O)[C@@H]2O)O[C@H]1n1cnc2c(=O)[nH]c(N)nc21 [m7GpppGmpG] | 12 ± 2.4 | – |
| CNc1ncnc2c1ncn2[C@@H]1O[C@H](COP(=O)(O)OP(=O)(O)OP(=O)(O)OC[C@H]2O[C@@H](n3c[n+](C)c4c(=O)[nH]c(N)nc43)[C@H](O)[C@@H]2O)[C@@H](OP(=O)(O)OC[C@H]2O[C@@H](n3cnc4c(=O)[nH]c(N)nc43)[C@H](O)[C@@H]2O)[C@H]1O [m7Gpppm6ApG] | 16.9 ± 3.2 | – |
| C[n+]1cn([C@@H]2O[C@H](COP(=O)(O)OP(=O)(O)OP(=O)(O)OC[C@H]3O[C@@H](n4c[n+](C)c5c(=O)[nH]c(N)nc54)[C@H](O)[C@@H]3O)[C@@H](O)[C@H]2O)c2nc(N)[nH]c(=O)c21 [m7Gpppm7G] | 14.3 ± 2.1 | – |
| C[n+]1cn(C2OC(COP(=O)([O-])OP(=O)(O)OP(=O)(O)OP(=O)(O)OP(=O)(O)OCC3OC(n4cnc5c(=O)[nH]c(N)nc54)C(O)C3O)C(O)C2O)c2nc(N)[nH]c(=O)c21 (stereo not drawn) [m7GpppppG] | 13.9 ± 2.5 | – |
| CO[C@H]1[C@@H](O)[C@H]([n+]2cn(C)c3c(=O)[nH]c(N)nc32)O[C@@H]1COP(=O)([O-])OP(=O)(O)OP(=O)(O)OC[C@H]1O[C@@H](n2cnc3c(=O)[nH]c(N)nc32)[C@H](O)[C@@H]1O [m27,3’OGpppG] | 10.6 ± 1.1 | – |
